Data on one molecule can be found in PMC7555119, “Characterization of Novel Synthetic Polyphenols: Validation of Antioxidant and Vasculoprotective Activities” (Antioxidants, 2020).

Series [1] concerns NADPH oxidase activity in segments of aorta from C57BL6/J mice. As to the kind of experiment: NADPH oxidase activity in aortic segments stimulated ex vivo with IL-1β. The settings on record: IL-1β 10 ng/mL 6 h. On the procedure: Aortic segments from three-month-old C57BL6/J mice were incubated with IL-1β (10 ng/mL, 6 h, Sigma Aldrich) in the presence and in the absence of the different compounds that were added 30 min before stimulation.
The O2 production generated by NADPH oxidase was determined by a chemiluminescence assay. Briefly, endothelial cells or aortic segments were homogenized in phosphate buffer (50 mmol/L KH2PO4, 1 mmol/L EGTA, 150 mmol/L sucrose, pH 7.4). The reaction was started by the addition of a lucigenin (5 μmol/L) and NADPH (100 μmol/L; Sigma-Aldrich) mixture to the protein sample in a final volume of 250 μL. Chemiluminescence was determined every 2.4 s for 3 min in a microtiter plate luminometer (Enspire Perkin Elmer). Basal activity in the absence of NADPH was subtracted from each reading and normalized to protein concentration. Data were normalized vs. control situation.

A short description of series [2]: Stability in aqueous media (H2O/acetonitrile 80:20, HPLC-MS). The format is physicochemical. An excerpt: The solutions were checked by HPLC-MS at regular intervals of time for 60 days. […] The rest of the compounds suffered progressive degradation, with complete disappearance from the solution after 10 or 20 days. The most unstable polyphenol derivatives were 4 and 10 (Figure S1), having both two p-dihydroxy substitutions in the phenyl rings, which points to the rapid and easy oxidation to the p-hydroquinone. From the four compounds with three phenyl rings, only one was stable in aqueous solution (17).

Molecules are shown by their SMILES.

As to `O=C(Nc1ccc(O)cc1)N(c1ccc(O)cc1)c1ccc(O)cc1` [Compound 17, N,N-bis(4-Hydroxyphenyl)-N′-(4′-hydroxyphenyl)urea], the melting point was 186 to 187 °C (dec.). Besides, the “effect on NADPH oxidase activity induced by IL-1β” value in series [1] is recorded as “significant inhibition of the IL-1β effects”. In addition, the “stability in aqueous media” value in series [2] (H2O/acetonitrile (80:20%), room temperature, checked for 60 days) is “sufficiently stable”. For the same molecule, in series [2] (remaining pure compound (HPLC) after two months at room temperature in aqueous solution (+20% acetonitrile)), the “Aqueous Stability (%)” value came to 93%.

By melting point is commonly meant the temperature of the solid-liquid transition.
